Experimental data taken from BindingDB's records for doi:10.1021/jm00098a008 (University of Minnesota, 1992).

Molecular target: Alcohol dehydrogenase 1 (Saccharomyces cerevisiae) (UniProt P00330)
Assay: Inhibitory activity against yeast alcohol dehydrogenase

Sequence of Alcohol dehydrogenase 1 (Saccharomyces cerevisiae) (P00330 whole entry, looked up): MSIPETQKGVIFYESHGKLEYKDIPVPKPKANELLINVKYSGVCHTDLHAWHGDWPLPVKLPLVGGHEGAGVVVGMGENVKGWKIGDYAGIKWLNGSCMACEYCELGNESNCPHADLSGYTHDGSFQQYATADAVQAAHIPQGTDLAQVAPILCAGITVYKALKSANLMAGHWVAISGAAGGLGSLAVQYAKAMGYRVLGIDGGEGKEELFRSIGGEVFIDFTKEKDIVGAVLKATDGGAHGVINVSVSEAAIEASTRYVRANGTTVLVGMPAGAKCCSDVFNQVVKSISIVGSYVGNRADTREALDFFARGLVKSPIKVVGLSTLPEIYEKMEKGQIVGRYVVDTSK

N#CN(OC(=O)c1ccccc1)C(=O)c1ccccc1 gave an IC50 of 25 µM.

CC(=O)ON(C(C)=O)S(=O)(=O)c1ccc(Cl)cc1 gave an IC50 of 39 µM.
